Values after ≈ are worked out from the molar mass of the structure shown. Active and inactive are the calls of the source. The calls are words filed in the database; no cut-off is given here. Non-standard residues stand in square brackets, D forms with d. Residues, ends and D or L forms follow the SMILES beside them. Bip = N[C@@H](Cc1ccc(-c2ccccc2)cc1)C(=O)O; pY = N[C@@H](Cc1ccc(OP(=O)(O)O)cc1)C(=O)O
Assays:
Klebsiella pneumoniae [1] = assay: Antibacterial activity against Klebsiella pneumoniae ATCC 700603 incubated for 18 to 24 hrs by broth microdilution method; format: functional; conditions: time 18-24 hrs
[2] = Toxicity in ip dosed BALB/c mouse assessed as liver bleeding at LD50 dose by H and E staining based assay; format: organism-based; conditions: in vivo
Trypsin = Trypsin (Homo sapiens, UniProt P07477+P07478+P35030); assay: Stability of compound assessed as trypsin (unknown origin) mediated compound degradation; format: ADME, protein assay
Staphylococcus aureus [3] = assay: Antibacterial activity against Staphylococcus aureus ATCC 25923 infected in BALB/c mouse systemic infection model assessed as reduction in bacterial load in spleen at 21.21 mg/kg, ip pre-infected for 2 hrs followed by compound addition and measured after 8 hrs postinfection; format: functional, organism-based; conditions: time 6.0 hrs
[4] = Toxicity in ip dosed BALB/c mouse assessed as effect on spleen at LD50 dose by H and E staining based assay; format: organism-based; conditions: in vivo
[5] = Toxicity in ip dosed BALB/c mouse assessed as liver edema at LD50 dose by H and E staining based assay; format: organism-based; conditions: in vivo
Chymotrypsin = Chymotrypsin (Homo sapiens, UniProt Q99895+P17538+P40313+Q6GPI1); assay: Stability of compound assessed as chymotrypsin (unknown origin) mediated compound degradation; format: ADME, protein assay
Staphylococcus aureus [6] = assay: Antibacterial activity against Staphylococcus aureus ATCC 25923 infected in BALB/c mouse systemic infection model assessed as reduction in bacterial load in liver at 21.21 mg/kg, ip pre-infected for 2 hrs followed by compound addition and measured after 8 hrs postinfection; format: functional, organism-based; conditions: time 6.0 hrs
Klebsiella pneumoniae [7] = assay: Antibacterial activity against Klebsiella pneumoniae ATCC 700603 infected in BALB/c mouse lung infection model assessed as increased healing at 5.31 mg/kg, ip administered twice daily for 3 days and measured for 7 days; format: functional, organism-based; conditions: time 10.0 day
Staphylococcus aureus [8] = assay: Antibacterial activity against Staphylococcus aureus ATCC 25923 infected in BALB/c mouse systemic infection model assessed as improved alveoli dilation at 21.21 mg/kg, ip pre-infected for 2 hrs followed by compound addition and measured after 8 hrs postinfection; format: functional, organism-based; conditions: time 6.0 hrs
Cell membrane [9] = assay: Induction of cytoplasmic membrane rupture in Staphylococcus aureus ATCC 25923 assessed as adhesion at 2 times MIC incubated for 30 to 120 mins by SEM analysis; format: subcellular; conditions: time 30-120 min
[10] = Toxicity in ip dosed BALB/c mouse assessed as effect on heart at LD50 dose by H and E staining based assay; format: organism-based; conditions: in vivo
Staphylococcus aureus [11] = assay: Antibacterial activity against Staphylococcus aureus ATCC 25923 incubated for 18 to 24 hrs by broth microdilution method; format: functional; conditions: time 18-24 hrs
Escherichia coli [12] = assay: Antibiofilm activity against Escherichia coli ATCC 25922 assessed as eradication of preformed biofilms at 2 to 4 times MIC incubated for 24 hrs by crystal violet staining based assay; format: functional, organism-based
Cell membrane [13] = assay: Induction of inner membrane permeabilization in Escherichia coli ML-35 assessed as increase in […] intensity by ONPG dye based microplate reader assay; format: subcellular
Escherichia coli [14] = assay: Antibacterial activity against Escherichia coli ATCC 25922 assessed as fold increase in MIC in presence of MgCl2; format: functional
Staphylococcus aureus [15] = assay: Antibacterial activity against Staphylococcus aureus ATCC 25923 in presence of KCl; format: functional, organism-based
Escherichia coli [16] = assay: Antibacterial activity against Escherichia coli ATCC 25922 preincubated with serum for 6 hrs followed by 15 mins inactivation prior to bacteria addition and measured after 18 to 24 hrs; format: functional, organism-based; conditions: time 18-24 hrs
Staphylococcus aureus [17] = assay: Antibacterial activity against Staphylococcus aureus ATCC 25923 infected in BALB/c mouse systemic infection model assessed as reduction in bacterial load in kidney at 21.21 mg/kg, ip pre-infected for 2 hrs followed by compound addition and measured after 8 hrs postinfection; format: functional, organism-based; conditions: time 6.0 hrs
Pseudomonas aeruginosa [18] = assay: Antibiofilm activity against Pseudomonas aeruginosa ATCC 27853 assessed as eradication of preformed biofilms at 4 times MIC incubated for 24 hrs by crystal violet staining based assay; format: functional, organism-based
Klebsiella pneumoniae [19] = assay: Synergistic antibacterial activity against Klebsiella pneumoniae ATCC 700603 assessed as fractional inhibitory concentration index at 1/4 to 4 times MIC incubated for 18 to 24 hrs in presence of polymyxin B by checkerboard assay; format: functional; conditions: time 18-24 hrs
[20] = Toxicity in ip dosed BALB/c mouse assessed as kidney edema at LD50 dose by H and E staining based assay; format: organism-based; conditions: in vivo
Pseudomonas aeruginosa [21] = assay: Inhibition of biofilm formation in Pseudomonas aeruginosa ATCC 27853 incubated for 24 hrs by crystal violet staining based assay; format: functional, organism-based
Staphylococcus aureus [22] = assay: Antibacterial activity against Staphylococcus aureus ATCC 25923 in presence of ZnCl2; format: functional, organism-based
Staphylococcus aureus [23] = assay: Bactericidal activity against Staphylococcus aureus ATCC 25923 at 2 times MIC within 120 mins by time kill assay; format: functional, organism-based
Escherichia coli [24] = assay: Antibacterial activity against Escherichia coli ATCC 25922 in presence of ZnCl2; format: functional, organism-based
Staphylococcus aureus [25] = assay: Antibacterial activity against Staphylococcus aureus ATCC 25923 infected in BALB/c mouse systemic infection model assessed as reduction in bacterial load in lung at 20 mg/kg, ip pre-infected for 2 hrs followed by compound addition and measured after 8 hrs postinfection; format: functional, organism-based; conditions: time 6.0 hrs
Staphylococcus aureus [26] = assay: Antibacterial activity against Staphylococcus aureus ATCC 25923 infected in BALB/c mouse systemic infection model assessed as reduction in inflammatory response in lung tissue at 20 mg/kg, ip pre-infected for 2 hrs followed by compound addition and measured after 8 hrs postinfection; format: functional, organism-based; conditions: time 6.0 hrs
Klebsiella pneumoniae [27] = assay: Antibacterial activity against Klebsiella pneumoniae ATCC 700603 infected in BALB/c mouse lung infection model assessed as improved alveolar aggregation at 5 mg/kg, ip administered twice daily for 3 days and measured after 7 days; format: functional, organism-based; conditions: time 10.0 day
Staphylococcus aureus [28] = assay: Antibacterial activity against Staphylococcus aureus ATCC 25923 infected in BALB/c mouse systemic infection model assessed as improved alveoli dilation at 20 mg/kg, ip pre-infected for 2 hrs followed by compound addition and measured after 8 hrs postinfection; format: functional, organism-based; conditions: time 6.0 hrs
Klebsiella pneumoniae [29] = assay: Antibacterial activity against Klebsiella pneumoniae ATCC 700603 infected in BALB/c mouse lung infection model assessed as removal of bacterial load at 5 mg/kg, ip administered twice daily for 3 days and measured after 6 days; format: functional; conditions: time 9 day
[30] = Toxicity in BALB/c mouse assessed as mortality at 40 to 130 mg/kg, ip measured after 14 days; format: organism-based; conditions: in vivo, 336 h, dose 40-130 mg/kg, time 14 day
[31] = Toxicity in ip dosed BALB/c mouse assessed as inflammatory cell infiltration in kidney at LD50 dose by H and E staining based assay; format: organism-based; conditions: in vivo
[32] = Toxicity in ip dosed BALB/c mouse assessed as hemorrhage in kidney at LD50 dose by H and E staining based assay; format: organism-based; conditions: in vivo
Klebsiella pneumoniae [33] = assay: Antibacterial activity against Klebsiella pneumoniae ATCC 700603 infected in BALB/c mouse lung infection model assessed as increased healing at 5 mg/kg, ip administered twice daily for 3 days and measured for 7 days; format: functional, organism-based; conditions: time 10.0 day
Staphylococcus aureus [34] = assay: Bactericidal activity against Staphylococcus aureus ATCC 25923 at 2 times MIC measured upto 1440 mins by time kill assay; format: functional, organism-based
Staphylococcus aureus [35] = assay: Antibacterial activity against Staphylococcus aureus ATCC 25923 assessed as fold increase in MIC preincubated with serum for 6 hrs followed by 15 mins inactivation prior to bacteria addition and measured after 18 to 24 hrs; format: functional; conditions: time 18-24 hrs

## CC(C)C[C@H](NC(=O)[C@H](CC(C)C)NC(=O)[C@H](Cc1ccc(OP(=O)(O)O)cc1)NC(=O)[C@H](CCCCN)NC(=O)[C@H](CC(C)C)NC(=O)[C@H](CCCNC(=N)N)NC(=O)[C@H](CCCCN)NC(=O)[C@H](Cc1ccc(-c2ccccc2)cc1)NC(=O)[C@H](CC(C)C)NC(=O)CN)C(N)=O (H-GL[Bip]KRLK[pY]LL-NH2)
Klebsiella pneumoniae [1]
  MIC: 8 µM (≈ 11.2 µg/mL)
[2]
  Activity: Toxic
Trypsin
  Stability: Stable
Staphylococcus aureus [3]
  Activity: Active
[4]
  Activity: Toxic
[5]
  Activity: Toxic
Chymotrypsin
  Stability: Stable
Staphylococcus aureus [6]
  Activity: Active
Klebsiella pneumoniae [7]
  Activity: Active
Staphylococcus aureus [8]
  Activity: Active
Cell membrane [9]
  Activity: Active
[10]
  Activity: Toxic
Staphylococcus aureus [11]
  MIC: 8 µM (≈ 11.2 µg/mL)
Escherichia coli [12]
  Activity: Active
Cell membrane [13]
  Activity: Time-dependent-effect; More Potent Than 1% Triton X-100 And Polymyxin B
Escherichia coli [14]
  fold change (FC): 2
Staphylococcus aureus [15]
  Activity: Active; Compound Showed Excellent Tolerance Towards Salt Environment
Escherichia coli [16]
  Activity: Active; Antibacterial Activity Remained Unaffected
Staphylococcus aureus [17]
  Activity: Active
Pseudomonas aeruginosa [18]
  Activity: Active
Klebsiella pneumoniae [19]
  fractional inhibitory concentration index (FICI): 0.5
[20]
  Activity: Toxic
Pseudomonas aeruginosa [21]
  inhibition: Dose-dependent-effect; Inhibition Comparable To Polymyxin B
Staphylococcus aureus [22]
  Activity: Active; Compound Showed Excellent Tolerance Towards Salt Environment
Staphylococcus aureus [23]
  Activity: Active
Escherichia coli [24]
  Activity: Active; Compound Showed Excellent Tolerance Towards Salt Environment

## CC(C)C[C@H](NC(=O)[C@H](CC(C)C)NC(=O)[C@H](Cc1ccc(O)cc1)NC(=O)[C@H](CCCCN)NC(=O)[C@H](CC(C)C)NC(=O)[C@H](CCCNC(=N)N)NC(=O)[C@H](CCCCN)NC(=O)[C@H](Cc1ccc(-c2ccccc2)cc1)NC(=O)[C@H](CC(C)C)NC(=O)CN)C(N)=O (H-GL[Bip]KRLKYLL-NH2)
Klebsiella pneumoniae [1]
  MIC: 8 µM (≈ 10.6 µg/mL)
Trypsin
  Stability: Stable
Chymotrypsin
  Stability: Stable
Staphylococcus aureus [25]
  Activity: Active
Staphylococcus aureus [26]
  Activity: Active
Klebsiella pneumoniae [27]
  Activity: Active
Cell membrane [9]
  Activity: Active
Staphylococcus aureus [11]
  MIC: 8 µM (≈ 10.6 µg/mL)
Escherichia coli [12]
  Activity: Active
Cell membrane [13]
  Activity: Time-dependent-effect; More Potent Than 1% Triton X-100 And Polymyxin B
Staphylococcus aureus [28]
  Activity: Active
Klebsiella pneumoniae [29]
  Activity: 100%
[30]
  Activity: Toxic
[31]
  Activity: Toxic
[32]
  Activity: Toxic
Pseudomonas aeruginosa [18]
  Activity: Active
Klebsiella pneumoniae [19]
  fractional inhibitory concentration index (FICI): 0.5
Pseudomonas aeruginosa [21]
  inhibition: Dose-dependent-effect; Inhibition Comparable To Polymyxin B
Klebsiella pneumoniae [33]
  Activity: Active
Staphylococcus aureus [34]
  Activity: Active
Staphylococcus aureus [35]
  fold change (FC): 2

Source: ChEMBL document CHEMBL6092167, “Phosphorylation as an Effective Tool to Improve Stability and Reduce Toxicity of Antimicrobial Peptides” (J Med Chem, 2024)
